For two molecules, EC50 results are on record in patent US12569502B2, “Use of bile acids and derivatives thereof in preparation of GPR39 agonist” (PEKING UNIVERSITY, priority 2019, dated 2026).

This experiment addresses T1, zinc ion binding site mutant (H17A and H19A) GPR39 (Mus musculus, UniProt Q5U431, H17A/H19A).
T1 construct: 3HA (N); P2A-mCherry (C); expressed in transfected cells; host or cells: HEK293T, transient (Lipofectamine 3000)
T1 sequence (Q5U431 1-456 H17A/H19A): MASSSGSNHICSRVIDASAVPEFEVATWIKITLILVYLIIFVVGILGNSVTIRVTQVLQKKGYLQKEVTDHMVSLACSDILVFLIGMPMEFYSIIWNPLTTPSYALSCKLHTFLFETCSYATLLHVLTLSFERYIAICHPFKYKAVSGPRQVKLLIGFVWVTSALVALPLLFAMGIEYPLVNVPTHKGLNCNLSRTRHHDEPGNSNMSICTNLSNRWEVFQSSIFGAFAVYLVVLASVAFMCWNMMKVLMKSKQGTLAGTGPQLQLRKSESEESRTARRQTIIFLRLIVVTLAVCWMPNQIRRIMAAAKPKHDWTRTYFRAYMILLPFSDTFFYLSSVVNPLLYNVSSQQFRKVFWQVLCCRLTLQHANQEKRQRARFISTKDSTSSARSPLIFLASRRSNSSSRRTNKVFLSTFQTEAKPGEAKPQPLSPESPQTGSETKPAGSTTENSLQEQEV
As to the kind of experiment: Calcium imaging on 293T cells transiently transfected with zinc ion binding site mutant GPR39. The experiment is classed as cell-based. Conditions: transiently transfected HEK293T cells. From the text:
In the present application, the bile acid and/or derivative thereof is capable of activating the GPR39 independent of a zinc ion binding site. For example, in some embodiments, murine-derived wild-type (WT) GPR39 or zinc ion binding site mutant (H17A and H19A) GPR39 are transiently expressed in 293T cells by using lipofectamine3000 transfection kit. The activation effect of LCAS on the wild-type (WT) and mutants (H17A and H19A) is detected by calcium imaging.
The pCMV6-3HA-mGPR39-P2A-mCherry vector carrying murine-derived GPR39 gene and having a total length of about 7 Kbp was selected as the PCR template, and a site-directed mutant vector was obtained by PCR site-directed mutagenesis. With the mutation site as the centre, a forward primer m39-H17A-F and a reverse primer m39-H17A-R were designed by extending approximately 15 bp each way, which sequences were respectively shown in Table 3 below. At 1 bp upstream of the mutation site, a 15 bp complementary sequence to the forward primer was designed, and the length of the reverse primer was designed to maintain the annealing temperature of the primer at 60° C. A high-fidelity DNA polymerase (Phanta Max Super-fidelity DNA polymerase, Vazyme) was used for site-directed PCR. 5 μL cutsmart buffer (NEB) and 1 μL restriction endonuclease DpnI (NEB) were added into the PCR product for overnight digestion, and then 10 μL of the product was transferred into 50 μL DH5α for heat shock transformation. The corresponding resistant solid LB medium was selected to coat and culture the product and enable it grow overnight at 37° C. A single colony was picked for inoculation, and the bacteria were shaken to extract the plasmid which was verified by sequencing. A monoclonal vector which had been sequenced to be correct was selected and marked as pCMV6-3HA-mGPR39(H17A&H19A)-P2A-mCherry, which structure was shown in FIG. 5.
HEK293T cells were seeded in a PDL-coated 96-well plate (coring Co.) at an appropriate density (about 3×10^4 cells/well) and cultured under conditions of 37° C. and 5% CO2. […]

Some results are limits rather than exact numbers.

For orientation: EC50 means the concentration that produces a half-maximal response. On to `C[C@H](CCC(=O)O)[C@H]1CC[C@H]2[C@@H]3CC[C@@H]4C[C@H](OS(=O)(=O)O)CC[C@]4(C)[C@H]3CC[C@]12C` [LCAS], for which the EC50 stood at 8.7 ± 0.8 µM (+ 4 μM zinc ions) and 24 ± 0.8 µM (agonist alone). For `[Zn+2]` [Zinc ions, reference compound], the EC50 (agonist alone) is greater than 100 µM.
